Results published in PMC7766762, “New Eudesmane-Type Sesquiterpene Glycosides from the Leaves of Aster koraiensis” (Plants, 2020).
“Also recorded” adds a separate entry of the source.

Tests used:
[1] = system: LPS-stimulated PGE2 production in RAW 264.7 macrophages; test: LPS-induced PGE2 production in RAW 264.7 macrophages (EIA kit); type: cell-based; conditions: for IC50 / inhibition at 100 µM: Mus musculus, RAW264.7, RAW 264.7; for IC50: LPS 1 μg/mL, 24 h; for inhibition at 100 µM: compound 100 μM and LPS 1 μg/mL, pretreated 1 h, incubated 24 h, read-out: Inhibition Rate (%) PGE2
Description: (§1) All the isolates 1–9 obtained from the leaves of A. koraiensis were evaluated for their inhibitory effects of LPS-stimulated NO and PGE2 production in RAW 264.7 macrophages at non-toxic concentrations (Table 3).
(§2) Figure 5 Inhibitory effects of compound 7 on LPS-stimulated NO (A) and PGE2 productions (B) in RAW 264.7 macrophages. Cells were pretreated with different concentrations (25, 50, or 100 μM) of compound 7 for 1 h, then with LPS (1 μg/mL), and then were incubated for 24 h. l-N^6-(1-Iminoethyl)lysine (l-NIL, 10 μM) and N-[2-(cyclohexyloxy)-4-nitrophenyl]-methanesulfonamide (NS-398, 10 μM) were used as positive NO and PGE2 production inhibitors, respectively.
PGE2 levels in cell culture mediums were determined using EIA kits (R&D Systems, MN) as reported in the previous paper.

[2] = system: LPS-stimulated NO production in RAW 264.7 macrophages; test: LPS-induced NO production in RAW 264.7 macrophages (Griess reaction); type: cell-based; conditions: for IC50 / inhibition at 100 µM: Mus musculus, RAW264.7, RAW 264.7; for IC50: LPS 1 μg/mL, 24 h; for inhibition at 100 µM: compound 100 μM and LPS 1 μg/mL, pretreated 1 h, incubated 24 h, read-out: Inhibition Rate (%) NO
Description: as §1, §2
Cell viability and nitrite levels were measured using MTT and Griess reaction assays, respectively.

[3] = Cell viability (MTT assay) in LPS-treated RAW 264.7 macrophages; type: cell-based; conditions: mouse, RAW 264.7 macrophages treated with LPS, compound 100 μM and LPS 1 μg/mL, pretreated 1 h, incubated 24 h, read-out: Cell Viabilities (%)
Description: [table] Cell viability and nitrite levels were measured using MTT and Griess reaction assays, respectively.

[4] = LPS-stimulated RAW 264.7 cells, non-toxic concentrations

Compound	IC50 [1] [µM]	inhibition at 100 µM [1] [%]	IC50 [2] [µM]	inhibition at 100 µM [2] [%]	viability at 24 h, 100 μM [3] [%]	melting point [°C]	Inhibitory effect on PGE2 production (in words) [1, 4]	Inhibitory effect on NO production (in words) [2, 4]
CC1=CC[C@@H](O)[C@]2(C)[C@@H](OC(=O)/C=C\c3ccc(O)cc3)C[C@@H](C(C)C)[C@@H](O[C@@H]3O[C@H](CO)[C@@H](O)[C@H](O)[C@H]3O)[C@@H]12 [Compound 6, (1R,5S,6R,7S,9S,10R)-9-O-(Z-p-coumaroyl)-1,6,9-trihydroxy-eudesm-3-ene-6-O-β-D-glucopyranoside]	> 100	2.16	> 100	7.01	108	–	–	–
CC1=CC[C@@H](O)[C@@]2(C)[C@H]1[C@H](O[C@@H]1O[C@H](CO)[C@@H](O)[C@H](O)[C@H]1O)[C@H](C(C)(C)O)C[C@@H]2O [Compound 4, (1R,5S,6S,7R,9S,10R)-1,6,9,11-tetrahydroxy-eudesm-3-ene-6-O-β-D-glucopyranoside]	> 100	6.15	> 100	1.31	102	–	–	–
CC1=CCC(OC2OC(CO)C(O)C(O)C2O)C2(C)C(O)CC(C(C)(C)O)C(OC3OC(CO)C(O)C(O)C3O)C12 [Compound 3, (1R,5S,6S,7R,9S,10S)-1,6,9,11-tetrahydroxy-eudesm-3-ene-1,6-di-O-β-D-glucopyranoside]	> 100	10.5	> 100	4.66	94	230	–	–
O=C(/C=C/c1ccc(O)c(O)c1)O[C@@H]1C[C@](O)(C(=O)O)C[C@@H](OC(=O)/C=C/c2ccc(O)c(O)c2)[C@H]1O [Compound 8, 3,5-dicaffeoylquinic acid]	> 100	1.27	> 100	6.25	93.4	–	–	–
CC1=CC[C@@H](O)[C@@]2(C)[C@H]1[C@H](O[C@@H]1O[C@H](CO)[C@@H](O)[C@H](O)[C@H]1O)[C@H](C(C)C)C[C@@H]2O [Compound 2, (1R,5S,6R,7S,9S,10R)-1,6,9-trihydroxy-eudesm-3-ene-6-O-β-D-glucopyranoside]	> 100	0	> 100	3.2	105	–	–	–
CC1=CCC(OC2OC(CO)C(O)C(O)C2O)C2(C)C(O)CC(C(C)C)C(OC3OC(CO)C(O)C(O)C3O)C12 [Compound 1, (1R,5S,6R,7S,9S,10S)-1,6,9-trihydroxy-eudesm-3-ene-1,6-di-O-β-D-glucopyranoside]	> 100	0	> 100	1.79	102	167.2	–	–
COc1cc(/C=C/C(=O)O[C@H]2C[C@@H](C(C)C)[C@@H](O[C@@H]3O[C@H](CO)[C@@H](O)[C@H](O)[C@H]3O)[C@H]3C(C)=CC[C@@H](O)[C@]23C)ccc1O [Compound 7, (1R,5S,6R,7S,9S,10R)-9-O-(E-feruloyl)-1,6,9-trihydroxy-eudesm-3-ene-6-O-β-D-glucopyranoside]	> 100	41.3	95.7	53.1	89.3	–	weak inhibitory effects; also recorded: weak inhibitory activities	weak inhibitory effects; also recorded: weak inhibitory activities
O=C(/C=C/c1ccc(O)c(O)c1)O[C@@H]1[C@H](O)C[C@@](O)(C(=O)O)C[C@H]1OC(=O)/C=C/c1ccc(O)c(O)c1 [Compound 9, 4,5-dicaffeoylquinic acid]	> 100	20.4	> 100	4.64	100	–	–	–
CC1=CC[C@@H](O)[C@]2(C)[C@@H](OC(=O)/C=C/c3ccc(O)cc3)C[C@@H](C(C)C)[C@@H](O[C@@H]3O[C@H](CO)[C@@H](O)[C@H](O)[C@H]3O)[C@@H]12 [Compound 5, (1R,5S,6R,7S,9S,10R)-9-O-(E-p-coumaroyl)-1,6,9-trihydroxy-eudesm-3-ene-6-O-β-D-glucopyranoside]	> 100	0	> 100	8.39	104	–	–	–
